US20060263238A1, “Decontamination of biological microbes using quaternary ammonium surfactants at elevated temperatures” (priority 2005, published 2006)

Legend:
B. globigii spores [1] = assay: Spore decontamination followed immediately by dilution and plating (CFU titer); type: cell-based, Bacillus globigii; details: for reduction of spores: 1% surfactant in water, >10^7 spores/ml, apparently independent of pH; for sporicidal (bacterial) activity: in the presence of moderate applied heat
Method: In the examples, below, three representative quaternary ammonium surfactants were tested for decontamination of Bacillus spores. The three exemplified quaternary ammonium surfactants are hexadecyltrimethylammonium chloride, dicocodimethylammonium chloride, and alkyldimethylbenzylammonium chloride. All three quaternary ammonium surfactants were dissolved in water and tested over a pH range. Testing occurred with and without applied heat. All experiments were performed with at least 3-4 replicates with many experiments reproduced numerous times.
(§1) Bacillus spores were suspended in the appropriate solvent at a concentration of 2 mg spores/ml (approximately 2×10^8 spores/ml). Starting volume of 1.125 ml of spores at 2 mg/ml. 3 or 4 spore aliquots of 50 μl per aliquot were removed. These aliquots were serially diluted in 1×PBS and plated on LB or TSA agar plates. This is a control step that gave the spore titer or colony-forming units (CFUs) at Time=0 minutes (T0). The appropriate decontamination solution (2× concentration) was aliquoted into each of 3 or 4 Eppendorf tubes with 200 ul per tube. Then 200 ul of spores were added and mixed to give a final concentration of 1× decontamination solution and 1 mg spores/ml. The spores in decontamination solution were then mixed and incubated for specific time periods and temperatures. A typical incubation was in a room temperature (25° C.) water bath for 30 (or 60) minutes. There was no agitation during the incubation period in order to mimic real world situations. Aliquots of spores were removed after 30 (or 60) minutes. The aliquots (3 or 4 replicates) were serially diluted in 1×PBS and plated on LB or TSA agar plates. This gave a CFU at Time=30 minutes (T30), which is the titer of live spores after the decontamination test. After removing the aliquots at the 30-minute time point, test (or control) samples were then immediately incubated in a 70° C. water bath for another 30 minutes. The samples were then serially diluted and plated on to LB or TSA agar plates to determine the titer after the 70° C. incubation. The entire dilution series from 0.1 through 0.000001 dilutions were plated. An optional wash assay was employed to confirm that the surfactant was killing spores rather than behaving as a bacterostatic agent. The wash assay included centrifuging and washing spores after decontamination. 100 ul of spores (after decontamination) were added to 200 ul of water and centrifuged at 10,000×g for one minute at room temperature. The supernatant was removed and saved. 10% of the supernatant volume was plated and titered as a wash control, to determine if live spores were being removed in the supernatant. Spore pellets were suspended in 1 ml of water and then pelleted at 10,000×g for one minute at room temperature. The supernatant was removed and saved. Spore pellets were washed again with 1 ml of water. Then spore pellets were suspended, serially diluted and plated. This removed the surfactant prior to plating and confirmed results that were bactericidal rather than bacterostatic.

B. globigii spores [2] = assay: Optional wash assay (surfactant removed by centrifuging and washing spores before plating); type: cell-based, Bacillus globigii; details: between pH5 and pH7 at 70° C.; for reduction of spore decontamination (wash assay): data not shown
Method: as §1
An optional wash assay was employed to verify the results (data not shown). […]

[3] = 30 minutes at 25° C. (room temperature)

CCCCCCCCCCCCCCCC[N+](C)(C)C.[Cl-] [hexadecyltrimethylammonium chloride]
reduction of spores (B. globigii spores [1]; [3]): approximately 1 order-of-magnitude | reduction of spores (B. globigii spores [1]; 30 minutes at 70° C., complete): greater than 7 orders-of-magnitude | sporicidal (bacterial) activity (B. globigii spores [1]): strong sporicidal (bacterial) activity | spores alive out of the original 10-100 million spores (wash assay) (B. globigii spores [2]): less than 10 thousand | reduction of spore decontamination (wash assay) (B. globigii spores [2]): over 4 orders-of-magnitude

dicocodimethylammonium chloride
reduction of spores (B. globigii spores [1]; [3]): approximately 1 order-of-magnitude | reduction of spores (B. globigii spores [1]; 30 minutes at 70° C., complete): greater than 7 orders-of-magnitude | sporicidal (bacterial) activity (B. globigii spores [1]): strong sporicidal (bacterial) activity | spores alive out of the original 10-100 million spores (wash assay) (B. globigii spores [2]): less than 10 thousand | reduction of spore decontamination (wash assay) (B. globigii spores [2]): over 4 orders-of-magnitude

alkyldimethylbenzylammonium chloride
reduction of spores (B. globigii spores [1]; [3]): approximately 1 order-of-magnitude | reduction of spores (B. globigii spores [1]; 30 minutes at 70° C., complete): greater than 7 orders-of-magnitude | sporicidal (bacterial) activity (B. globigii spores [1]): strong sporicidal (bacterial) activity
